Experiments:
[1] = system: HT29 cells; experiment: DNA analysis by flow cytometry (cell cycle profile, sub-G1 peak); type: cell-based, human; settings: for Dose dependence of subG1 peak: HT29, 72 h, increasing dose 1-35 or 40 μM; for Apoptosis induction (sub-G1 peak detection): HT29, 72 h treatment; for Cells in G1-phase: HT29, compound alone, 24 h in culture; for Maximum apoptosis in time-course: HT29, highest dose assayed, 72 h; for Cell population retained in G2/M phase: HT29, in combination with low doses of Taxol
Experimental: DNA analysis. Floating and adherent cells treated with the compounds were collected by trypsinization and washed twice with PBS. The cells were permeabilized overnight at −20° C. with ice-cold ethanol 70%. The cells were washed in PBS, adjusted at 0.5×10^6 cells/ml and incubated with 20 μg/ml Propidium Iodide and 2 μl/ml RNase DNase-free for 30 min at 30° C. Cells were maintained overnight at 4° C. and then analysed by flow cytometry. Flow cytometric experiments were carried out using an Epics XL flow cytometer (Coulter Corporation, Hialeah, Fla.). The instrumet was set up with the standard configuration: excitation of the sample was done using an standard 488 nm air-cooled argon-ion laser at 15 mW power. Forward scatter (FSC), side scatter (SSC) and red (620 nm) fluorescence for PI were adquired. Optical alignement was based on optimized signal from […] fluorescent beads (Immunocheck, Epics Division). Time was used as a control of the stability of the instrument. Red fluorescence was projected on a 1024 monoparametrical histogram. Aggregates were excluded gating single cells by their area vs. peak fluorescence signal. DNA analysis (Ploidy analysis) on single fluorescence histograms was done using Multicycle software (Phoenix Flow Systems, San Diego, Calif.).
FIG. 2. N10-13-10C and N13-13-10C are pro-apoptotic peptoids while N4-13-10C and N5-13-10C are not. Cell cycle profile was analysed by DNA staining. HT29 cells were grown for 72 h in presence of N4-13-10C (100 μM), N5-13-10C (100 μM), N10-13-10C (40 μM), N13-13-10C (35 μM), Taxol (11 nM) or DMSO as negative control. Fraction of cells at G0/G1, S, G2/M or subG1 peak are specified.
FIG. 3. Specific pro apoptotic effect of N10-13-10C and N13-13-10C. (A) SubG1 peak analysis on several cell lines including HT29, LoVo, MDA.MB.435 and its lung metastatic derivatives lung 2 and lung 6 after 72 h treatment with N10-13-10C or N13-13-10C at IC50 values specified on Table 1. (B) Dose-response analysis of subG1 peak after 72 h treatment of HT29 cells with N 10-13-10C or N13-13-10C at 1, 5, 10, 20, 30 and 35 or 40 μM, respectively. Both, floating and adherent cells were collected, fixed, stained with propidium iodide and DNA content was evaluated by flow cytometry. The fraction of cells with hypodiplod DNA content, i.e. subG1 peak are shown.
FIG. 4. (A) Time course analysis of cell cycle profile after treatment of HT29 cells with N10-13-10C (40 μM), N13-13-10C (35 μM) and/or Taxol (11 nM) for 24 h, 48 h and 72 h. The fraction of cells with subG1 (dark blue), G0/G1 (red), S (yellow), G2/M (blue) DNA content are shown as % of total cell population. (B.) N13-13-10C pulse experiments. HT29 cells were treated transiently with 35 μM N13-13-10C for 1, 3, 6, 24, 48 or 72 h and returned to medium without product for up to 72 h. DNA staining was analyzed by flow cytometry.

[2] = target: cycA-Cdk2 (Homo sapiens, UniProt P24941); experiment: In vitro kinase assay for Cdk2; type: biochemical; settings: 3 μM or 30 μM
Experimental: We had observed that cycA protein levels and pRb hypophosphorylation decrease in cell extracts of N10-13-10C or N13-13-10C treated cells (FIG. 8). To assess whether these compounds were direct inhibitors of Cdk2 activity, in vitro kinase assays for Cdk2 were performed.
Kinase assays for testing of Cdk2/CycA-E kinase activity. ELISA plates were blocked with 200 μl of blocking solution (PBS containing 1% BSA, 0.02% Tween and 0.02% sodium Azide) overnight at 4° C. Plates were then subsequently washed 3 times, 5 min each with 100 μl of washing solution (PBS containing 0.02% Tween and 0.02% sodium Azide). Plates were then dried during 2-4 h at room temperature. Kinase assay was performed in kinase buffer (Hepes 25 mM pH 7.4 and MgCl2 10 mM) containing 4 μg of histone H1, 30 μM ATP, 2 mM DTT, 0.1 μl of ATP-P^32, 800 nM GST-CDK2, and 800 nM of GST-cyclin A in a final volume of 60 μl. Assays were carried out in the presence or absence of different concentrations of peptide mixtures to be checked. A inhibitory control was performed adding 800 nM of p21 to the reaction media. Mixtures were incubated for 30 min at 37° C. After incubation, 50 μl of each mixture was filtered in nitrocellulose membranes placed in a dot blot apparatus. […] The radioactivity associated to the membranes was detected with a “Phosphor-imager”.

With `COc1ccc(CCN(CC(=O)N(CCc2ccccc2)CC(N)=O)C(=O)CNCCc2ccccc2)cc1` [N10-13-10C] the “Dose dependence of subG1 peak” value [1] was “dose-dependent apoptosis”, the “Apoptosis induction (sub-G1 peak detection)” value [1] was “able to induce apoptosis” and the “Cells in G1-phase” value [1] was “increase the percentage of cells in G1-phase”. For the same compound, the “Maximum apoptosis in time-course” value [1] was 20%, the “Cell population retained in G2/M phase” value [1] was “about 60%” and the “Inhibition of cycA-Cdk2 kinase activity” value [2] was “Neither of both compounds was able to inhibit”.

`COc1ccc(CCNCC(=O)N(CCc2ccc(OC)cc2)CC(=O)N(CCc2ccccc2)CC(N)=O)cc1` [N13-13-10C] was tested, and the “Pulse necessary for irreversible induction of apoptosis” value ([1]; HT29, 35 μM, returned to drug-free medium up to 72 h) was ≥ 24 h, the “Dose dependence of subG1 peak” value [1] was “dose-dependent apoptosis” and the “Apoptosis induction (sub-G1 peak detection)” value [1] was “able to induce apoptosis”. For the same compound, the “Cells in G1-phase” value [1] was “increase the percentage of cells in G1-phase”, the “Maximum apoptosis in time-course” value [1] was “around 40%” and the “Cell population retained in G2/M phase” value [1] was “about 60%”. For the same compound, the “Cell cycle profile after short time pulses” value ([1]; HT29, pulses of 1, 3 and 6 h) was “do not differ from control cells” and the “Inhibition of cycA-Cdk2 kinase activity” value [2] was “Neither of both compounds was able to inhibit”.

— patent publication US20060229255A1, “Identification of n-alkylglycine trimers for induction of apoptosis” (priority 2003, published 2006)
